{"source": "patent US20230228764A1", "about": "“METHOD FOR THE DIAGNOSIS AND TREATMENT OF ESSENTIAL PRIMARY HYPERTENSION” (Universiteit Maastricht, priority 2020, published 2023)", "key": {"[1]": {"test_system": "elevated blood pressure induced by NOS uncoupling", "conditions": "preclinical, refs [85, 86]; cited from earlier work"}, "[2]": {"test_system": "femoral arteries of aged NOX5 KI mice", "assay": "Acetylcholine (Ach)-induced relaxation of isolated femoral arteries, wire myograph", "conditions": "for Reversal of impaired Ach-induced relaxation by antioxidant: femoral arteries of aged KI mice contracted with 10 μM phenylephrine, Ach 10 μM", "description": "(§1) To test the effect of endothelial NOX5 on endothelium-dependent, NO-cGMP mediated relaxation, arterial segments were pre-contracted by either depolarization (K^+), α1-adrenergic activation (phenylephrine), or endothelin-1; vaso-relaxation was then induced by acetylcholine (Ach) the classical endothelium-derived relaxing factor stimulant. […] When comparing ours to previous studies, the Ach-induced relaxation of saphenous arteries of both mice groups seemed attenuated. There are two possible explanations for this discrepancy. First, we have used very old mice and other studies used young mice.\nAfter mice were sacrificed, thoracic aortae, femoral and saphenous arteries were dissected free from perivascular adipose tissue and mounted in a wire myograph (DMT, Aarhus, DK). The organ chamber was filled with Krebs-Ringer bicarbonate-buffered salt solution (KRB) that was continuously aerated with 95% O2/5% CO2 and maintained at 37° C. Passive stretch procedure was performed to mimic the physiologically relevant internal lumen diameter as previously described. Arterial contractile and relaxing responses were recorded at lumen diameters corresponding to a distending pressure of 100 mmHg in thoracic aorta and femoral artery and at 90% of this diameter in the resistance-sized saphenous artery. […] The diameter tension relationships were constructed according to the law of Laplace for a cylindrical tube: P=T/R (with P for transmural pressure, T for wall tension and R for the lumen radius of the tube). Consequently, wall stiffness can be determined equally by recording 1) changes in tension in response to imposed changes in radius (wire myography) or 2) changes in radius in response to changes in transmural pressure (pressure myography). Here we used the former approach because it has a higher throughput than the latter. Stress-strain relationships and even better “incremental elastic (Young's) modulus” (which require additional recording of wall thickness) only come into play to discriminate between structural and material property contributions to changes in arterial stiffness. Part of the isolated thoracic aorta was studied in the absence and part in the continuous presence of 10 μM indomethacin to inhibit production of prostaglandins that can act as endothelium-derived vasoactive factors in this vessel. The vessels were tested for their contractile response to 40 mM K^+, concentration-response curves of phenylephrine (0.01 to 100 μM) and endothelin-1 (1-256 nM) followed by acetylcholine (Ach) (0.01 to 100 μM), PAPA/NO (0.01-10 μM) or Bay60-2770 (0.01-10 μM)-induced relaxations. The wall tension of the vessel segment was continuously recorded with LabChart Pro (AD Instruments, Oxford, UK)."}, "hypertensive patients": {"test_system": "hypertensive patients", "conditions": "cited from earlier work"}, "[3]": {"test_system": "femoral arteries of aged WT and KI mice", "assay": "Endothelium-independent relaxations induced by apo-sGC activator, wire myograph", "conditions": "BAY 60-2770 0.01-10 μM", "experimental": "(§2) To test which component of NO-cGMP signalling was most likely affected, we tested an uncoupling effect on endothelial NO synthase or an oxidative damage of the NO receptor, soluble guanylate cyclase yielding oxidized or heme-free apo-sGC [51, 52]. To test for sGC/apo-sGC, relaxing responses to the NO donor compound and sGC stimulator, PAPA/NO (0.01-10 μM), and to the aposGC activator, BAY 60-2770 (0.01-10 μM), were analyzed.\n(§3) After mice were sacrificed, thoracic aortae, femoral and saphenous arteries were dissected free from perivascular adipose tissue and mounted in a wire myograph (DMT, Aarhus, DK). The organ chamber was filled with Krebs-Ringer bicarbonate-buffered salt solution (KRB) that was continuously aerated with 95% O2/5% CO2 and maintained at 37° C. […] Arterial contractile and relaxing responses were recorded at lumen diameters corresponding to a distending pressure of 100 mmHg in thoracic aorta and femoral artery and at 90% of this diameter in the resistance-sized saphenous artery. […] Consequently, wall stiffness can be determined equally by recording 1) changes in tension in response to imposed changes in radius (wire myography) or 2) changes in radius in response to changes in transmural pressure (pressure myography). […] The wall tension of the vessel segment was continuously recorded with LabChart Pro (AD Instruments, Oxford, UK)."}, "[4]": {"test_system": "thoracic aorta of the KI and WT mice", "assay": "Agonist-induced contractile responses, wire myograph", "conditions": "10 μM indomethacin", "description": "We next tested whether, alternatively, chronic changes in the underlying arterial smooth muscle layer could have contributed to the observed blood pressure and vasomotor phenotypes in aged NOX5 KI mice. Contractile responses to K^+ and the sensitivity and maximal responsiveness to phenylephrine and endothelin-1 did, however, not differ between KI and WT mice in all arterial segments (FIGS. 10 A-I).\nas §3"}, "[5]": {"test_system": "femoral arteries of aged NOX5 KI mice", "assay": "Measurement of superoxide formation: DHE staining", "conditions": "pre-treatment with 500 μM L-NAME for 30 min at 37° C.", "experimental": "Superoxide was measured in femoral arteries using the florescence dye dihydroethidium (DHE) (Thermo Scientific Technology, The Netherlands). Frozen femoral arteries cryo-sections were fixated in 4% paraformaldehyde (PFA) in PBS and then incubated with 2 μM DHE for 30 minutes at 37° C. After three washing steps with PBS, slices were incubated with DAPI (Sigma-Aldrich, The Netherlands) […] for 10 min. Sections were washed in PBS and then mounted using a Dako Fluorescence Mounting Medium ([…], Agilent Technologies). Immunofluorescent signals were viewed using a Leica DM13000 B fluorescence microscope. Some arteries were pre-treated with 500 μM L-NAME for 30 min at 37° C. before performing the DHE staining."}, "[6]": {"test_system": "thoracic aorta of aged KI and WT mice", "assay": "Ach-induced relaxation of isolated thoracic aorta, wire myograph", "conditions": "thoracic aorta contracted with 258 nM endothelin-1, 100 μM L-NAME", "description": "as §1\nas §3, with “DK).” for “DK). The organ chamber was filled with Krebs-Ringer bicarbonate-buffered salt solution (KRB) that was continuously aerated with 95% O2/5% CO2 and maintained at 37° C.”"}, "[7]": {"test_system": "saphenous arteries of aged KI and WT mice", "assay": "Ach-induced relaxation of isolated saphenous arteries, wire myograph", "conditions": "saphenous arteries contracted with endothelin-1; 100 μM L-NAME; both types of mice", "description": "as §1\nas §3, with “DK).” for “DK). The organ chamber was filled with Krebs-Ringer bicarbonate-buffered salt solution (KRB) that was continuously aerated with 95% O2/5% CO2 and maintained at 37° C.”"}, "[8]": {"test_system": "femoral arteries, saphenous arteries and thoracic aortae of aged WT and KI mice", "assay": "Endothelium-independent relaxations induced by NO donor, wire myograph", "conditions": "PAPA/NO 0.01-10 μM, thoracic aortae with/without indomethacin", "experimental": "as §2, §3"}}, "note": "“Also recorded” adds a separate entry of the source.", "data": [{"smiles": "C[C@H](O)C(=O)C1=Nc2c(nc(N)[nH]c2=O)NC1", "note": "[sepiapterin]", "values": [{"measurement": "Effect on elevated blood pressure", "setting": "[1]", "value": "lower elevated blood pressure"}, {"measurement": "Ach-induced relaxation after pre-treatment", "setting": "[2]; femoral arteries of aged KI mice pre-contracted with phenylephrine, sepiapterin 100 μM", "value": "improved relaxation in KI; also recorded: greatly improved and became indistinguishable from those in WT"}]}, {"smiles": "Nc1nc2ncc(CNc3ccc(C(=O)N[C@@H](CCC(=O)O)C(=O)O)cc3)nc2c(=O)[nH]1", "note": "[folic acid]", "values": [{"measurement": "Effect on elevated blood pressure", "setting": "hypertensive patients; clinical, by improving endothelial function, refs [88, 89]", "value": "clinically effective to reduce elevated blood pressure"}, {"measurement": "Risk of cardiovascular and cerebrovascular events", "setting": "hypertensive patients; hypertensive patients, alone or in combination with anti-hypertensives, refs [90-92]", "value": "reduces the risk of cardiovascular and cerebrovascular events"}]}, {"smiles": "O=C(O)CCCCN(CCc1cc(F)ccc1OCc1ccc(-c2ccc(C(F)(F)F)cc2)cc1)Cc1ccc(C(=O)O)cc1", "note": "[BAY 60-2770]", "values": [{"measurement": "Relaxing response, WT vs KI mice", "setting": "[3]", "value": "Neither the PAPA/NO (FIGS. 13 A-C) nor the BAY 60-2770 response (FIG. 11 D) differed"}, {"measurement": "Relaxing response, WT vs KI mice", "setting": "[3]; listed as Bay60-2770", "value": "did not differ"}]}, {"smiles": "COc1ccc2c(c1)c(CC(=O)O)c(C)n2C(=O)c1ccc(Cl)cc1", "note": "[indomethacin]", "values": [{"measurement": "Blunting of agonist-induced contractile responses, KI vs WT mice", "setting": "[4]", "value": "similar"}]}, {"smiles": "COC(=O)[C@@H](N)CCCNC(=N)N[N+](=O)[O-]", "note": "[L-NAME]", "values": [{"measurement": "Superoxide formation (DHE staining), increase in KI vs WT", "setting": "[5]", "value": "this increase was inhibited"}, {"measurement": "Reversal of the relaxing effects of Ach", "setting": "[2]; femoral artery contracted with 258 nM endothelin-1, 100 μM L-NAME, KI and WT mice", "value": "reversed"}, {"measurement": "Reversal of the relaxing effects of Ach", "setting": "[6]", "value": "reversed"}, {"measurement": "Reversal of the relaxing effects of Ach", "setting": "[7]", "value": "did not modify the relaxing effects of Ach"}]}, {"smiles": "CC1(C)CC(O)CC(C)(C)N1[O]", "note": "[tempol]", "values": [{"measurement": "Reversal of impaired Ach-induced relaxation by antioxidant", "setting": "[2]; 100 μM tempol", "value": "not reversed; also recorded: Neither 10 μM N-acetylcysteine nor 100 μM tempol, however, were effective"}]}, {"smiles": "CC(=O)N[C@@H](CS)C(=O)O", "note": "[N-acetylcysteine]", "values": [{"measurement": "Reversal of impaired Ach-induced relaxation by antioxidant", "setting": "[2]; 10 μM N-acetylcysteine", "value": "not reversed; also recorded: Neither 10 μM N-acetylcysteine nor 100 μM tempol, however, were effective"}]}, {"smiles": "CCCN(CCCN)/[N+]([O-])=N/O", "note": "[PAPA/NO]", "values": [{"measurement": "Relaxing response, WT vs KI mice", "setting": "[8]", "value": "Neither the PAPA/NO (FIGS. 13 A-C) nor the BAY 60-2770 response (FIG. 11 D) differed"}, {"measurement": "Relaxing response, WT vs KI mice", "setting": "[8]; listed as PAPA NO", "value": "did not differ"}]}]}
